Experimental findings from patent publication US5283246A, “Trimetazidine compounds” (Adir et Compagnie, priority 1991, dated 1994) are described below.

Where only a bound is given, the exact number is not on record here.

Experiment [1] deals with rat aorta. Nature of the experiment: Study on isolated vessels: vascular relaxing effect on a rat aorta contracted by potassium (80 mM). To be noted: rat aorta rings without endothelium contracted by potassium (80 mM). More on the design: species or system Wistar rat. On the procedure: The thoracic aorta of Wistar rats (325-375 g) that have been anaesthetized by the intraperitoneal route with sodium pentobarbital (30 mg/kg) is removed and dissected into rings 3 mm in length; the endothelium is removed by gentle abrasion using a piece of wood. Each ring is connected to a Statham pressure sensor (UC2-Gould). The initial pressure applied is 2.5 g. The physiological solution used, maintained at 37° C., has the following composition (mM): NaCl 112; KCl 5; KH2 PO4 1; MgSO4 1.2; CaCl2 2.5; NaHCO3 25; glucose 11.; EDTA 0.026. After a stabilization period of 90 minutes, the aorta rings are subjected to a hyperpotassic medium (80 MM KCl and 37 mM NaCl). When the contraction is stable, cumulative concentrations of compound are added to the medium every 15 minutes. The relaxation values obtained enable calculation of the IC50.

For experiment [2], the system named is isolated hearts of rats. Description: Hypoxia reoxygenation on the isolated heart of a rat. More on the design: species or system Wistar rat. On the procedure:
The hearts of male Wistar rats (325-375 g--Charles River breed) anaesthetized by the intraperitoneal route with sodium pentobarbital (30 mg/kg) are removed after the injection of heparin i.v. (1 ml/kg) and rapidly perfused by the Langendorff technique at a constant pressure of 76 mmhg and stimulated electrically at 5 Hz. The isovolumetric contractions are recorded by way of a small polyethylene balloon connected to a pressure sensor (P23-Gould) introduced into the left ventricle and inflated so as to obtain a diastolic pressure of approximately 10 mmhg. The physiological solution used, maintained at 37° C., has the following composition (mM): NaCl 118; KCl 4.7; KH2 PO4 1.2; MgCl2 1.2; CaCl2 1.3; NaHCO3 25; glucose 8, pH 7.4/95% O2 +5% CO2.
After a period of stabilization of from 15 to 30 minutes, the heart is subjected to hypoxia for 60 minutes (effected with 95% N2 and 5% CO2; PO2 <40 mmHg), followed by reoxygenation for 30 minutes; the compound is added to the incubation medium 15 minutes before and during the period of hypoxia.

Experiment [3] concerns cardiac cells. Nature of the experiment: Oxidative necrosis of cardiac cells induced by hypoxanthine/xanthine-oxidase (XO + HX). The experiment is classed as cell-based, rat (newborn). As to conditions: Rattus norvegicus, 4 h. On the procedure: The cardiac cells of newborn rats are used between the 5th and 6th days after placing in culture. Oxidative necrosis is induced by the free radical-producing enzymatic system hypoxanthine (HX, 1 -mm) and xanthineoxidase (XO, 10 mU/ml). The necrosis is evaluated 4 hours after the addition of XO/HX by measuring by spectrophotometry the cytosolic α-hydroxybutyrate dehydrogenase (a-HBDH) activity liberated in the supernatant. The cells are treated with the test compounds 16 hours and 1 hour before the beginning of the experiment after renewing the medium. At the beginning of the experiment, the treatment is carried out again one last time.
Table 3 lists the necrosis indices of cardiac cells induced by the hypoxanthine/xanthine-oxidase system alone or in the presence of increasing concentrations of the compounds of the invention.

Experiment [4] concerns human LDLs. Nature of the experiment: Modification of human LDLs by copper sulphate (lipid peroxidation, MDA production). The experiment is classed as biochemical. As to conditions: copper sulphate 5×10^-6 M, 24 hours; read-out: IC50, inhibition of copper-induced modification (MDA production) of human LDLs. On the procedure: Human LDLs are incubated for 24 hours in the presence of copper sulphate (5×10^-6 M) and in the absence or presence of the compounds tested (10^-7 M to 10^-4 M). After incubation, the peroxidation of the LDLs is evaluated by electrophoresis on agar gel and by the formation of one of the products of lipid peroxidation malonic dialdehyde (MDA), (Parthasarathy S., Young S. G., Witztum J. L., Pittman R. C. and Steinberg, D.; J. Clin. invest. 77; 641-644, 1986).
The activity of the tested compounds is evaluated by calculating those concentrations (IC50) that reduce the production of MDA by 50% compared with control experiments in the absence of the tested compound.

In experiment [5] the test system is pigs. Nature of the experiment: Myocardial ischaemia induced by coronary stenosis in pigs. It counts as in vivo, Large White pig. As for the experimental part: The study is carried out on "Large White" pigs of both sexes aged 3 months and weighing 21 to 26 kg. The animals are tranquillized using midazolam (I mg/kg i.m.), then anaesthetized with sodium thiopental (8 mg/kg i.v.). The anaesthesia is maintained by a perfusion of 6 to 8 mg/kg/h. They are immediately intubated and ventilated with a mixture of air+O2. A "T" thoracotomy is carried out by longitudinal section of the sternum and incision between the 4th and 5th rib. The heart is suspended in a pericardial cradle made by cutting and fixing the pericardium at four points to the thoracic muscles. An electromagnetic flow ring is placed around the anterior interventricular branch of the left coronary, and a small pneumatic balloon is placed immediately downstream of that ring. This assembly is for the purpose of effecting coronary stenosis by controlling the flow. Piezoelectric crystals connected to a Triton sonomicrometer are implanted in the lower endocardium of the left ventricular wall according to a circumferential plane perpendicular to the cardiac axis. These crystals are for recording the regional myocardial contractility and endocardial ECGs in the area supplied by the stenosed coronary artery. Epicardial ECGs are also recorded in those areas by means of electrodes fixed to the myocardium. Myocardial ischaemia is effected by inflating the small balloon which induces a reduction in flow of 50 to 60 Two identical 3 minute stenoses with reproducible and reversible effects are carried out, separated by a recovery period of 55 minutes. The treatment is administered by five minutes' perfusion by the venous route 10 minutes before the stenosis perfusion of solvent before first stenosis perfusion of the compound or solvent before the second stenosis. The regional myocardial contractility is determined by the fraction of systolic shortening of the segment lengths comprised between the piezoelectric crystals. The hypokinesis in the ischaemic zone is expressed as a percentage variation in relation to the contractility measured in the control period. The modification of the epicardial and endocardial ECGs in the ischaemic zone consists in a superelevation of the segment S.T. measured in millivolts (mV).

Setting [6] is: 1 mg/kg intravenous before second stenosis, compared with first stenosis.

As usually defined, the IC50 is the midpoint of a concentration-inhibition curve. In turn, `COc1ccc(CN2CCN(CCCCCOc3cc(C)c(O)c(C)c3C)CC2)c(OC)c1OC` [Example 10, 4-(2,3,4-trimethoxybenzyl)-l-[5-(4-hydroxy-2,3,5-trimethylphenoxy)pentyl]piperazine] registered an IC50 in experiment [1] of 2 µM. The “functional recovery of the hearts during reoxygenation” value in experiment [2] (Example 1 at 3×10^-7 M, 10 at 10^-7 M, 13 at 7×10^-7 M, 40% in the control experiments) was “more than 70%”. In experiment [2] (end of 30 min reoxygenation, Example 1 at 3×10^-7 M, 10 at 10^-7 M, 13 at 7×10^-7 M, vs control), the “reduction of the developing contracture at the end of 30 minutes reoxygenation” value was “more than 70%”. The “Contracture, hypoxia 10 min” value in experiment [2] (hypoxia 10 min, Example 1 at 3 × 10^-7 M, Example 10 at 10^-7 M, Example 13 at 7 × 10^-7 M, control 23.7 ± 6.8) is on record as 15.3 ± 3.7 mm Hg. In experiment [2] (hypoxia 30 min, Example 1 at 3 × 10^-7 M, Example 10 at 10^-7 M, Example 13 at 7 × 10^-7 M, control 33.7 ± 8.9), the “Contracture, hypoxia 30 min” value amounted to 16.0 ± 6.4 mm Hg. Besides, the “Contracture, hypoxia 60 min” value in experiment [2] (hypoxia 60 min, Example 1 at 3 × 10^-7 M, Example 10 at 10^-7 M, Example 13 at 7 × 10^-7 M, control 32.3 ± 7.4) worked out at 14.7 ± 4.4 mm Hg. For the same compound, the “Contracture, reoxygenation 15 min” value in experiment [2] (reoxygenation 15 min, Example 1 at 3 × 10^-7 M, Example 10 at 10^-7 M, Example 13 at 7 × 10^-7 M, control 20.6 ± 7.8) is 7.3 ± 5.5 mm Hg. In experiment [2] (reoxygenation 30 min, Example 1 at 3 × 10^-7 M, Example 10 at 10^-7 M, Example 13 at 7 × 10^-7 M, control 12.3 ± 6.1), the “Contracture, reoxygenation 30 min” value amounted to 2.7 ± 2.7 mm Hg. Further, the activity at 10 µM in experiment [3] (10^-5 M, XO + HX, control XO + HX = 100.0, read-out: necrosis index of cardiac cells, XO + HX, compound 10^-5 M) amounted to 12.6 ± 1.3%. The activity at 1 µM in experiment [3] (10^-6 M, XO + HX, control XO + HX = 100.0, read-out: necrosis index of cardiac cells, XO + HX, compound 10^-6 M) amounted to 18.8 ± 3.7%. Also, the activity at 0.1 µM in experiment [3] (10^-7 M, XO + HX, control XO + HX = 100.0, read-out: necrosis index of cardiac cells, XO + HX, compound 10^-7 M) amounted to 88.8 ± 0.4%. Besides, in experiment [3] (XO + HX induced oxidative necrosis, read-out: concentration at which compounds prove to be protective against necrosis), the minimal effective concentration was ≥ 0.1 µM. Besides, the IC50 in experiment [4] worked out at 0.03 µM. Further, the “ST superelevation, endocardial ECG, second stenosis (ST2)” value in experiment [5] (1 mg/kg i.v. before second stenosis, ST1 (solvent) of same group 3.4 ± 0.4, control ST2 2.4 ± 0.51) came to 1.9 ± 0.5 mV. The “ST superelevation, epicardial ECG, second stenosis (ST2)” value in experiment [5] (1 mg/kg i.v. before second stenosis, ST1 (solvent) of same group 4.6 ± 1.0, control ST2 3.16 ± 1.2) was 2.5 ± 0.6 mV. The “% residual myocardial contractility, second stenosis (ST2)” value in experiment [5] (1 mg/kg i.v. before second stenosis, ST1 (solvent) of same group 20.4 ± 3.3, control ST2 25.2 ± 3.0) was 29.4 ± 2.6%. Also, in experiment [5] (setting [6]), the “improvement in the regional contractility in the ischaemic zone” value is reported as 50%; the “reduction of the superelevation of the segment ST, endocardial electrocardiogram” value stood at 45%; the “reduction of the superelevation of the segment ST, epicardial electrocardiogram” value stood at 45%.
